In PubChem BioAssay (NCI):
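Where inhibition never reached the appropriate level, the endpoint shown equals the highest concentration tested. Otherwise, values were interpolated linearly from a five-concentration, 48-hour dose response in 96-well plates. TGI denotes the concentration required for complete inhibition of growth.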

Assays:
Test in all cases: NCI anticancer screen, dose series, 48 h
[1] = tested on: 786-0 renal
[2] = tested on: A498 renal
[3] = tested on: A549 NSCLC
[4] = tested on: ACHN renal
[5] = tested on: BT-549 breast
[6] = tested on: CAKI-1 renal
[7] = tested on: CCRF-CEM leukemia
[8] = tested on: COLO 205 colon
[9] = tested on: DU-145 prostate
[10] = tested on: EKVX NSCLC
[11] = tested on: HCT-116 colon
[12] = tested on: HCT-15 colon
[13] = tested on: HL-60(TB) leukemia
[14] = tested on: HOP-62 NSCLC
[15] = tested on: HOP-92 NSCLC
[16] = tested on: HS 578T breast
[17] = tested on: HT29 colon
[18] = tested on: IGROV1 ovarian
[19] = tested on: KM12 colon
[20] = tested on: LOX IMVI melanoma
[21] = tested on: M14 melanoma
[22] = tested on: MALME-3M melanoma
[23] = tested on: MCF7 breast
[24] = tested on: MDA-MB-435
[25] = tested on: MDA-N
[26] = tested on: NCI-H226 lung
[27] = tested on: NCI-H23 lung
[28] = tested on: NCI-H460 lung
[29] = tested on: NCI-H522 lung
[30] = tested on: NCI/ADR-RES ovarian
[31] = tested on: OVCAR-3 ovarian
[32] = tested on: OVCAR-4 ovarian
[33] = tested on: OVCAR-5 ovarian
[34] = tested on: OVCAR-8 ovarian
[35] = tested on: RPMI-8226 leukemia
[36] = tested on: RXF 393 renal
[37] = tested on: SF-268 CNS
[38] = tested on: SF-295 CNS
[39] = tested on: SF-539 CNS
[40] = tested on: SK-MEL-28 melanoma
[41] = tested on: SK-MEL-5 melanoma
[42] = tested on: SK-OV-3 ovarian
[43] = tested on: SN12C renal
[44] = tested on: SNB-19 CNS
[45] = tested on: SNB-75 CNS
[46] = tested on: SR leukemia
[47] = tested on: SW-620 colon
[48] = tested on: TK-10 renal
[49] = tested on: UACC-257 melanoma
[50] = tested on: UACC-62 melanoma
[51] = tested on: UO-31 renal
[52] = tested on: HCC-2998 colon
[53] = tested on: K-562 leukemia
[54] = tested on: MDA-MB-231 breast
[55] = tested on: MOLT-4 leukemia
[56] = tested on: PC-3 prostate
[57] = tested on: SK-MEL-2 melanoma
[58] = tested on: U251 CNS

`CCOC(=O)/C(=C\NC(C)(C)C)c1nc2ccccc2[nH]1` was tested, and the TGI [1] was 72 µM, the TGI [2] was 57.3 µM and the TGI [3] was over 100 µM. The TGI [4] was 40.9 µM, the TGI [5] was 68.3 µM and the TGI [6] was 96.2 µM. For the same compound, the TGI [7] was 39.5 µM, the TGI [8] was 33.7 µM and the TGI [9] was over 100 µM. It also gave a TGI [10] of 34.5 µM, a TGI [11] of 95.2 µM and a TGI [12] of over 100 µM. The TGI [13] was 34 µM, the TGI [14] was 58.5 µM and the TGI [15] was 56.8 µM. The TGI [16] was 45.8 µM, the TGI [17] was 42.6 µM and the TGI [18] was 69.4 µM. For the same compound, the TGI [19] was 44.1 µM, the TGI [20] was 44.6 µM and the TGI [21] was 39.7 µM. It also gave a TGI [22] of 39.4 µM, a TGI [23] of 43.5 µM and a TGI [24] of 38.6 µM. The TGI [25] was 52.8 µM, the TGI [26] was 47 µM and the TGI [27] was 35.9 µM. It also gave a TGI [28] of 37.3 µM, a TGI [29] of 45.9 µM and a TGI [30] of 92.1 µM. The TGI [31] was 35 µM, the TGI [32] was 59.6 µM and the TGI [33] was 55.9 µM. It also gave a TGI [34] of 64.2 µM, a TGI [35] of 39.2 µM and a TGI [36] of 59.6 µM. For the same compound, the TGI [37] was 55.9 µM, the TGI [38] was 41.2 µM and the TGI [39] was 39.4 µM. For the same compound, the TGI [40] was 34.6 µM, the TGI [41] was 25.5 µM and the TGI [42] was 78.8 µM. The TGI [43] was 75.6 µM, the TGI [44] was over 100 µM and the TGI [45] was 68.7 µM. It also gave a TGI [46] of 28.3 µM, a TGI [47] of 93 µM and a TGI [48] of 47.6 µM. For the same compound, the TGI [49] was 35.2 µM, the TGI [50] was 30.1 µM and the TGI [51] was 41.3 µM.

For `O=C(c1cccc2ccccc12)C1S(=O)(=O)OCCOS1(=O)=O`, the TGI [1] was over 100 µM, the TGI [3] was over 100 µM and the TGI [4] was over 100 µM. The TGI [5] was over 100 µM, the TGI [6] was over 100 µM and the TGI [7] was over 100 µM. It also gave a TGI [8] of over 100 µM, a TGI [9] of over 100 µM and a TGI [10] of over 100 µM. For the same compound, the TGI [52] was over 100 µM, the TGI [11] was over 100 µM and the TGI [12] was over 100 µM. For the same compound, the TGI [13] was over 100 µM, the TGI [14] was over 100 µM and the TGI [17] was over 100 µM. It also gave a TGI [53] of over 100 µM, a TGI [19] of over 100 µM and a TGI [21] of over 100 µM. The TGI [22] was over 100 µM, the TGI [23] was over 100 µM and the TGI [54] was over 100 µM. The TGI [25] was over 100 µM, the TGI [55] was over 100 µM and the TGI [27] was over 100 µM. For the same compound, the TGI [28] was over 100 µM, the TGI [30] was over 100 µM and the TGI [31] was over 100 µM. The TGI [32] was over 100 µM, the TGI [33] was over 100 µM and the TGI [34] was over 100 µM. The TGI [56] was over 100 µM, the TGI [35] was over 100 µM and the TGI [38] was 0.0412 µM. It also gave a TGI [57] of over 100 µM, a TGI [40] of over 100 µM and a TGI [41] of over 100 µM. The TGI [43] was over 100 µM, the TGI [44] was over 100 µM and the TGI [46] was over 100 µM. It also gave a TGI [48] of over 100 µM, a TGI [58] of over 100 µM and a TGI [51] of over 100 µM.

`c1ccc2cc3c(cc2c1)Nc1c2ccccc2nc2cccc-3c12` was tested, and the TGI [2] was 6.8 µM, the TGI [3] was 3.3 µM and the TGI [4] was 2.88 µM. It also gave a TGI [5] of 38.4 µM, a TGI [6] of 3.05 µM and a TGI [8] of 3.02 µM. The TGI [9] was 3.1 µM, the TGI [52] was 3.1 µM and the TGI [15] was 2.86 µM. The TGI [17] was 3.2 µM, the TGI [18] was 2.75 µM and the TGI [53] was over 100 µM. The TGI [20] was 2.93 µM, the TGI [21] was 3.76 µM and the TGI [22] was 3.07 µM. The TGI [54] was 2.45 µM, the TGI [24] was 3.43 µM and the TGI [25] was 2.83 µM. The TGI [26] was 5.03 µM, the TGI [27] was 2.61 µM and the TGI [28] was 3.26 µM. It also gave a TGI [30] of 4.69 µM, a TGI [33] of 3.22 µM and a TGI [56] of 2.87 µM. It also gave a TGI [38] of 2.96 µM, a TGI [57] of 2.84 µM and a TGI [40] of 3.12 µM. The TGI [41] was 3.11 µM, the TGI [42] was 3.01 µM and the TGI [43] was 3.08 µM. For the same compound, the TGI [47] was 2.91 µM, the TGI [48] was 3.28 µM and the TGI [49] was 2.92 µM. For the same compound, the TGI [50] was 3.57 µM and the TGI [51] was 3 µM.
